{"source": "patent US20130253048A1", "about": "“Pharmaceutical Composition for Promoting Osteogenesis Containing Axial-equatorial Aryl-oriented Furofuran-type Lignan, and Pharmaceutical Preparation, Functional Food Product, and Health Food Product Comprising Composition” (ERINA CO., INC., priority 2010, published 2013)", "key": {"[1]": {"system": "TRACP5b", "experiment": "Serum TRACP5b of OVX mice (bone metabolism marker)", "type": "in vivo, mouse", "settings": "80 μg/kg/day s.c.; compared to the OVX group", "experimental": "All obtained blood from the heart under diethyl ether anesthesia at dissection was stored at 4 degree centigrade for 24 hours. Then, the blood was centrifuged at 3,000 rpm (4,000×g) for 15 minutes to separate the sera.\nAccording to the protocol of Mouse TRAP™ Assay (Immuno-diagnostic Systems Ltd, the United of Kingdom), TRACP5b in the obtained sera was determined."}, "[2]": {"system": "ovariectomized mouse (OVX mouse)", "experiment": "Bone formation in ovariectomized mouse (OVX mouse), dosing after bone resorption induction period, femur pQCT", "type": "in vivo", "settings": "80 μg/kg/day s.c.", "experimental": "Four-week-old female Slc; ddy mice (Japan SLC, Inc.) were purchased, and they were divided into 8 groups without acclimate keeping (6 mice per group). They were anesthetized by using 50 mg/kg of pentobarbital to be ovariectomized (it is referred to as “OVX” herein below) or to have Sham operation (it is referred to as “Sham” herein below) under the anesthesia which is given by intraperitoneal administration of 50 mg/kg of Somnopentyl (pentobarbital sodium).\nFrom the second day of the ovariectomy (or Sham operation), each group was maintained under the condition of 12 hour light/dark cycle, 23±3 degree centigrade as the room temperature, and humidity 55±5% for 2 months as the bone resorption induction period. The animal bedding was exchanged twice a week and all fresh bedding was used at all times. CRF-1 (Oriental Yeast Co., Ltd.) as the feed and deionized water as drinking water were freely given.\nAfter two month period from the test start, the bone resorption induction period, the test substance were given to each group at the amount shown in the following Table 7 for 3 month.\nNinety % of MeOH fraction (Shin-i) obtained in Example 1 and Fargesin (may refer to “Far” thereafter) were respectively dissolved into TD solution at the concentration shown in Table 7, and then they were administrated per os.\nHuman PTH (1-34) (herein below, it is sometimes referred to as “hPTH (1-34)”) were dissolved in distilled water at the concentration of 80 μg/kg/day, and it was administrated subcutaneously.\nAfter 3 month from the administration start, the mice belonging to all of the groups were weighed. They were anesthetized by using diethylether, and were collected their blood from their hearts, and then they were died. Then, organs such as the uterus, the white adipose tissue (WAT), the brown adipose tissue (BAT), the liver, the spleen, and both left and right lower extremities were removed. The left and right lower extremities were separated into the femurs and the tibias, and they were stored in 70% EtOH under the room temperature.\nThe muscles were removed from the obtained femur (right), and then its bone density and the like were measured by using pQCT employed in Example 1 under the following conditions.\nRecognition of contour (CONTMODE): 2 (auto search of ROI)\nRecognition method of cancellous bone: Surface & Area\nRation of cancellous bone area to all of the cross section areas: 35%\nCORTMODE used in CORTBD: 1* * Voxels not larger than the standard value for distinguishing the cortical bone from the cancellous bone (threshold: threshold) were omitted. Each tissue weight was also measured.\nTH value used in CORTBD: 690\nAmong the all data of cancellous bone density obtained from pQCT, both of the highest and the lowest data were deleted to obtain the Median. As to the other parameters were treated as the same as this, the graph was made with N=6. Statistical analysis was performed by using the Dennett's two-sided t test."}, "[3]": {"system": "ovariectomized mouse (type I osteoporosis model animal)", "experiment": "Change of bone mass in type I osteoporosis model animal (ovariectomized mice, dosing 3 months, femur pQCT)", "type": "in vivo", "excerpt": "Female Slc: ddy mice of 4 weeks old (Japan SLC, Inc.) was operated with ovariectomy to use as a type I osteoporosis model animal. Also, in order to delete the affection by invasion, a group which is operated without ovariectomy (Sham operation) is set (Sham group). These were the […] model animals.\nAnimal bedding were changed twice a week and always to use all fresh one, CRF-1 (Oriental Yeast Co., Ltd.) is fed as feed and deionized water as drinking water were freely given. Their body weights were weighed twice a week by the end of the experiment.\nFargesin was dissolved in 30 mL of a solution (it is referred to as “TD solution”, hereinbelow) containing 4% dimethyl sulfoxide (it is referred to as “DMSO”, hereinbelow) and 4% TWEEN 80 (both were purchased from Wako Pure Chemical Industries, Ltd.) so as that a dosage amount of fargesin becomes 20 mg/kg body wt/day, or […].\nAfter the surgical operation, the mice were adapted to the circumstances for 5 days, and then they were divided to the Sham group, the negative control, the positive control group, and the test substance administration group (6 mice per group). The ovariectomized mice were used for the negative control group, the positive control group, and the test substance administration group.\nFargesin solution was daily administrated to the ovariectomized mice in the test group at the dosage of 20 mg/kg body wt/day (it is referred to as “F20 group”, hereinbelow) or 100 mg/kg body wt/day (it is referred to as “F100 group”, hereinbelow) for 3 month p.o.\nIn order to study effects of fargesin on the bone, the femur, the largest long bone, was used.\nThe mice in each group were killed by the cervical dislocation under diethyl ether anesthesia. Their right femurs were excised with muscles, and the muscles were removed from the femur after the excision. Lengths of the excised bones from the mice in the groups were measured, and they were dipped in 70% ethanol to be fixed.\nIn FIG. 3, the bone was shown schematically. The long bone (tubular bone) was composed of two thick and rounded ends (epiphysis), and thin and long part between them (a shaft). The bone extends to longitudinal direction, depending on the growth of a plate-shape epiphyseal cartilage (a growth plate) between the epiphysis and the shaft. The region of 1 mm proximal side from the A position for a measurement was set to that from 1 mm proximal region (epiphysis) from the distal growth plate as decided as the measurement region.\nThe bone density was measured by using the peripheral quantitative computed tomography (pQCT, XCT Research SA+, Stratec Medizintechnik GmbH, Merk Ltd) (FIG. 3B). The measurement was performed under the conditions: a diameter of 90 mm, a voxel size of 0.12 mm, a CT speed of 10 mm/sec, and a block number of 1. Bone mineral content (mg/mm), bone density (mg/cm^3), and cross section of the bone (mm^2) of the entire of tomographic images (whole bone area) were calculated.\nNext, the area of the cancellous bone was extracted (peel mode 20), and then the bone mineral amount (mg/mm), the section of the bone (mm^2), and the bone density (mg/cm^3) were calculated. Further to the cortical bone, the bone mineral amount (mg/mm), the bone density (mg/cm^3), the section of the bone (mm^2), a bone thickness (mm), the periosteum perimeter of the cortical bone (mm), and the endosteum perimeter of the cortical bone (mm) were calculated.\nBased on the bone diameter and the bone density measured by the pQCT, SSI was calculated. SSI is composed of Polar SSI (torsion strength in polar coordination), X-axis SSI (strength in X axis, three-point bending strength), and Y-axis SSI (Y axis strength, three-point lateral bending strength), and it is expressed by the following general equation.\nWherein, Z is the coefficient of the cross section (mm^3), CBD is the bone density of the cortical bone (mg/cm^3), and ND is the physiological bone density (1200 mg/cm^3). The coefficient Z is shown as the following equation."}, "[4]": {"settings": "OVX mice, 3 months dosing after 2-month induction"}, "[5]": {"settings": "OVX mice, B100 group: 100 μg/kg body wt/day i.p."}, "[6]": {"settings": "OVX mice, B100 group: 100 μg/kg body wt/day i.p. (text prints F100 group)"}, "[7]": {"settings": "OVX mice, B100 group: 100 μg/kg body wt/day i.p., right femur, pQCT"}}}
{"molecule": "hPTH(1-34): Human PTH (1-34), dissolved in distilled water, administrated subcutaneously [reference compound]", "values": [{"measurement": "level of TRACP5b in the sera", "setting": "[1]", "value": "did not show major alteration"}, {"measurement": "Bone density of cancellous bone, relative value", "setting": "[2]; 5M Sham = 100", "value": 76.1}, {"measurement": "Bone density of cortical bone, relative value", "setting": "[2]; 5M Sham = 100", "value": 92.2}, {"measurement": "Bone density of the whole bones, relative value", "setting": "[2]; 5M Sham = 100", "value": 86.0}, {"measurement": "Bone strength (polar coordinates torsion strength)", "setting": "[2]; compared to Control OVX group", "value": "significantly increased"}, {"measurement": "Bone density of cancellous bone", "setting": "[2]; [4]", "value": "88.83 ± 30.90", "unit": "mg/cm^2"}, {"measurement": "Bone density of cortical bone", "setting": "[2]; [4]", "value": "906.50 ± 32.19", "unit": "mg/cm^2"}, {"measurement": "Bone thickness of cortical bone", "setting": "[2]; [4]", "value": "0.22 ± 0.03", "unit": "mm"}, {"measurement": "Cross section area of cortical bone", "setting": "[2]; [4]", "value": "1.69 ± 0.25", "unit": "mm^2"}, {"measurement": "Perimeter of cortical bone adventitia", "setting": "[2]; [4]", "value": "8.37 ± 0.26", "unit": "mm"}, {"measurement": "Perimeter of cortical bone lining membrane", "setting": "[2]; [4]", "value": "6.98 ± 0.34", "unit": "mm"}, {"measurement": "Bone density of the whole bones", "setting": "[2]; OVX mice, 3 months dosing after 2-month induction, right femur, pQCT", "value": "452.25 ± 49.00", "unit": "mg/cm^2"}]}
{"molecule": "C[C@]12CC[C@@H]3c4ccc(O)cc4CC[C@H]3[C@@H]1CC[C@@H]2O", "note": "[β-estradiol, reference compound]", "values": [{"measurement": "Average body weight during mouse growth", "setting": "[3]; B100 group: 100 μg/kg body wt/day i.p., versus NC group", "value": "lower than that of NC group mice"}, {"measurement": "Cortical bone Bone density", "setting": "[3]; [5]", "value": "867.475 ± 13.724", "unit": "mg/mL"}, {"measurement": "Cortical bone Bone thickness", "setting": "[3]; [5]", "value": "0.365 ± 0.038", "unit": "mm"}, {"measurement": "Cortical bone adventitia diameter", "setting": "[3]; [5]", "value": "7.9895 ± 0.096", "unit": "mm"}, {"measurement": "Cortical bone lining membrane diameter", "setting": "[3]; [5]", "value": "5.699 ± 0.229", "unit": "mm"}, {"measurement": "Polar axis bone strength (Table 3)", "setting": "[3]; [5]", "value": "1.946 ± 0.107", "unit": "mm^3"}, {"measurement": "bone mineral mass, cancellous bone", "setting": "[3]; [5]", "value": "0.725±0.110", "unit": "mg/mm"}, {"measurement": "bone mineral mass, whole bone", "setting": "[3]; [5]", "value": "3.325±0.203", "unit": "mg/mm"}, {"measurement": "bone mineral mass, cortical bone", "setting": "[3]; [6]", "value": "2.163±0.230", "unit": "mg/mm"}, {"measurement": "cross section area of the bone, cortical bone", "setting": "[3]; [6]", "value": "2.4825±0.230", "unit": "mm^2"}, {"measurement": "Polar axis strength (polar coordinates strength)", "setting": "[3]; OVX mice, B100 group: 100 μg/kg body wt/day i.p., SSI from pQCT", "value": "1.376±0.088", "unit": "mm^3"}, {"measurement": "Bone density Cancellous bone", "setting": "[3]; [7]", "value": "399.050 ± 53.851", "unit": "mg/mL"}, {"measurement": "Bone density whole bone", "setting": "[3]; [7]", "value": "652.025 ± 28.386", "unit": "mg/mL"}]}
